Measurements reported in patent US5945549A, “Production of aqueous solutions of mixtures of formyltertrahydrofuran and hydrates thereof” (Eastman Chemical Company, priority 1999, dated 1999).
Like-named read-outs stand apart in the source and are kept apart here.

Assays:
[1] = type: physicochemical
Experimental: Partition coefficients also were determined by the same procedures for using the inert organic solvents 1-decanol (alcohol), isobutyl isobutyrate (ester, IBIB), 2,2,4-trimethyl-1,3-pentanediol monoisobutyrate (alcohol ester, TMPD-MIB), and dimethyl terphthalate (aromatic diester, DMT).

[2] = Solvent partition coefficient into water, with and without 3-FTHF co-solvent (Examples 45-56); type: physicochemical; details: no co-solvent; H2O:(S + CS) 1:1
Excerpt: These examples include materials which could act as solvents for the reaction and extraction.

[3] = Hydration equilibrium 3-FTHF/3-DHMTHF in water by proton nuclear magnetic resonance; type: physicochemical
Experimental: The maximum density shown in Table I corresponds approximately to the composition for 3-DHMTHF. […] Confirmation of the formation of 3-DHMTHF when 3-FTHF is added to water comes from proton Nuclear Magnetic Resonance spectroscopy. At room temperature, 50 weight percent solutions of aqueous 3-FTHF show two components: 79 mole percent 3-DHMTHF and only 21 mole percent 3-FTHF. Furthermore, changing the water concentration either directly or by using water miscible solvents reversibly changes the 3-DHMTHF:3-FTHF mole ratio indicating a rapidly established equilibrium between the two components as well as showing their relative stability. The relative amounts of 3-FTHF and 3-DHMTHF at varying water/3-FTHF concentrations as determined by proton nuclear magnetic resonance spectroscopy are shown in Table II wherein the values given for "Water", "3-FTHF" and "Solvent" are weight percentages based on the total weight of the 3 component composition and "Solvent" refers to CD3 COCD3 (NMR solvent).
In Table II the value given for the 3-FTHF component is the amount of 3-FTHF dissolved in the composition although in aqueous solution it exists both as 3-FTHF and 3-DHMTHF. Some of the 3-FTHF in the water solution also exists in the form of an acetal, e.g., depending on the concentration, up to about 70 mole percent (at very high concentrations) but usually only about 0.5 mole percent (at 50 weight percent concentration) of the 3-FTHF is in the form of an acetal having the structure: [drawing 4] wherein n is 2.

[4] = 3-FTHF solubility in solvent; type: physicochemical
Experimental: Partition coefficients also were determined by the same procedures for using the inert organic solvents 1-decanol (alcohol), isobutyl isobutyrate (ester, IBIB), 2,2,4-trimethyl-1,3-pentanediol monoisobutyrate (alcohol ester, TMPD-MIB), and dimethyl terphthalate (aromatic diester, DMT). The 3-FTHF:Solvent:Water volume ratios used in each of Examples 37-44 was 3:3:4. The partition coefficients are shown in Table VI wherein the values specified for 3-FTHF Solubility in Solvent are weight percentages, the values given for Temp are the temperatures (° C.), K3FTHF is the partition coefficient for 3-FTHF determined as described above and Ksolvent is the coefficient for the solvent utilized in each example determined form its solubility in the two phase and affected by the presence of the 3-FTHF substrate.

[5] = Share of diol, hemiacetal or acetal in aqueous solution; type: physicochemical
[6] = Partition coefficient of triphenylphosphine between toluene and water; type: physicochemical
Excerpt: Rhodium, the other component of the catalyst, exists primarily as rhodium (I) hydrido carbonyl bis (triphenylphosphine) complex and accompanies the triphenylphosphine with a similar partition coefficient.

[7] = 50 weight percent aqueous 3-FTHF, room temperature
[8] = Water 6.1, 3-FTHF 6.3, CD3COCD3 87.6 wt %
[9] = Water 10.4, 3-FTHF 13.8, CD3COCD3 75.8 wt %
[10] = Water 15.2, 3-FTHF 20.2, CD3COCD3 64.6 wt %
[11] = Water 19.8, 3-FTHF 26.2, CD3COCD3 54.0 wt %
[12] = Water 24.1, 3-FTHF 32.0, CD3COCD3 43.9 wt %
[13] = Water 31.4, 3-FTHF 43.5, CD3COCD3 25.1 wt %
[14] = Water 36.9, 3-FTHF 46.6, CD3COCD3 16.5 wt %
[15] = Water 37.6, 3-FTHF 54.4, CD3COCD3 8.0 wt %
[16] = Water 45.0, 3-FTHF 55.0, CD3COCD3 0.0 wt %
[17] = 3-FTHF:Solvent:Water 3:3:4 by volume, 24.1-25.7 °C

CC(C)CC(C)(C)C [Isooctane, isooctane, reference compound]
KSolvent partition coefficient [1]: 0.00746

COC(=O)c1ccccc1C(=O)OC [DMP, dimethyl phthalate]
Solvent Partition Coefficient [2]: 0.00731

O=CC1CCOC1 (stereo not shown) [3-FTHF, 3-formyltetrahydrofuran]
Mole Percent in equilibrium [3, 7]: 21 mole percent | Mole Percent in equilibrium [3, 8]: 78.4 Mole Percent | Mole Percent in equilibrium [3, 9]: 68.8 Mole Percent | Mole Percent in equilibrium [3, 10]: 58.1 Mole Percent | Mole Percent in equilibrium [3, 11]: 51.1 Mole Percent | Mole Percent in equilibrium [3, 12]: 43.4 Mole Percent | Mole Percent in equilibrium [3, 13]: 33.3 Mole Percent | Mole Percent in equilibrium [3, 14]: 28.8 Mole Percent | Mole Percent in equilibrium [3, 15]: 24.9 Mole Percent | Mole Percent in equilibrium [3, 16]: 21.0 Mole Percent | 3-FTHF Solubility in Solvent ([4]; in 1-decanol): 100 weight percentages | 3-FTHF Solubility in Solvent ([4]; in DIPB): 100 weight percentages | 3-FTHF Solubility in Solvent ([4]; in DMT): 100 weight percentages | 3-FTHF Solubility in Solvent ([4]; in IBIB): 100 weight percentages | 3-FTHF Solubility in Solvent ([4]; in TMPD-MIB): 100 weight percentages | 3-FTHF Solubility in Solvent ([4]; in isooctane): 2.36 weight percentages | 3-FTHF Solubility in Solvent ([4]; in n-decane): 0.93 weight percentages | 3-FTHF Solubility in Solvent ([4]; in p-xylene): 100 weight percentages | 3-FTHF Solubility in Solvent ([4]; in toluene): 100 weight percentages | 3-FTHF in the form of an acetal (n is 2) ([5]; at 50 weight percent concentration): about 0.5 mole percent | 3-FTHF in the form of an acetal (n is 2) ([5]; at very high concentrations): up to 70 mole percent

CC(C)COC(=O)C(C)C [IBIB, isobutyl isobutyrate, reference compound]
KSolvent partition coefficient [1, 17]: 0.00772 | Solvent Partition Coefficient [2]: 0.00116

CCCCCCCCCCO [1-Decanol, 1-decanol, reference compound]
KSolvent partition coefficient [1, 17]: 0.01695 | Solvent Partition Coefficient [2]: 0.00028

COC(=O)c1ccc(C(=O)OC)cc1 [DMT, dimethyl terphthalate, reference compound]
KSolvent partition coefficient [1]: 0.02526

Cc1ccc(C)cc1 [p-Xylene, p-xylene, reference compound]
KSolvent partition coefficient [1, 17]: 0.0074 | Solvent Partition Coefficient [2]: 0.00015

CC(C)c1cccc(C(C)C)c1 [DIPB, 1,3-diisopropylbenzene, reference compound]
KSolvent partition coefficient [1, 17]: 0.01904

OC(O)C1CCOC1 (stereo not shown) [3-DHMTHF, 3-Dihydroxymethyltetrahydrofuran]
Mole Percent in equilibrium [3, 7]: 79 mole percent | Mole Percent in equilibrium [3, 8]: 21.6 Mole Percent | Mole Percent in equilibrium [3, 9]: 31.2 Mole Percent | Mole Percent in equilibrium [3, 10]: 41.9 Mole Percent | Mole Percent in equilibrium [3, 11]: 48.9 Mole Percent | Mole Percent in equilibrium [3, 12]: 56.6 Mole Percent | Mole Percent in equilibrium [3, 13]: 66.7 Mole Percent | Mole Percent in equilibrium [3, 14]: 71.2 Mole Percent | Mole Percent in equilibrium [3, 15]: 75.1 Mole Percent | Mole Percent in equilibrium [3, 16]: 79.0 Mole Percent

c1ccc(P(c2ccccc2)c2ccccc2)cc1 [triphenylphosphine]
effective partition coefficient of triphenylphosphine ([6]; 10 percent emulsion): 0.095 | partition coefficient of triphenylphosphine between toluene and water ([6]; Example 57, 50:1 triphenylphosphine:toluene, 1:1 water:triphenylphosphine+toluene by volume): 0.00433 | partition coefficient of triphenylphosphine ([6]; aqueous/toluene, room temperature, 50 weight percent water in aqueous phase): 0.0043

CCCCCCCCCC [n-Decane, decane, reference compound]
KSolvent partition coefficient [1]: 0.00661

2,2,4-trimethyl-1,3-pentanediol monoisobutyrate [TMPD-MIB, reference compound]
KSolvent partition coefficient [1]: 0.00481
